# In patent US20160137630A1, “INDUCTION OF GATA2 BY HDAC1 AND HDAC2 INHIBITORS” (ACETYLON PHARMACEUTICALS, INC., priority 2014, published 2016):
# pIC50: −log10 of the molar value. Where two headings read alike, the source gives them in different places.
# Key:
# [1] = test system: Gata2 mRNA; assay: induction of Gata2 mRNA in erythroid progenitors by HDAC1,2 inhibitors; format: cell-based, human; settings: erythroid progenitors differentiated 3 days with compound; FIG. 2A-C
# Text: Human bone marrow derived CD34+ cells were expanded for 7 days as described by Sankaran et al., Science, vol. 322(5909), pp. 1839-42 (2008). Cells were then differentiated, in the presence of the indicated compound (i.e., Compounds 001, Compound Y, Compound 2005, Compound 2004, Compound 2003), for 3 days in media supporting erythropoiesis (Hu et al., “Isolation and functional characterization of human erythroblasts at distinct stages: implications for understanding of normal and disordered erythropoiesis in vivo”, Blood, vol. 121(16), pp. 3246-53 ([…])). FIG. 2A, FIG. 2B, and FIG. 2C each represents an experimental series performed on different days and with different donor cells.
# [2] = test system: erythroblasts derived from CD34+ cells isolated from human bone marrow; assay: QRT-PCR time course of mRNA expression during erythroid differentiation; format: cell-based
# Text: Gata2 mRNA was induced while Gata1 mRNA was unaffected. The culture system was as described by Sankaran et al., “Human fetal hemoglobin expression is regulated by the developmental stage-specific repressor BCL11A”, Science, vol. 322(5909), pp. 1839-42 (2008).
# Gata2 mRNA was induced while Gata1 mRNA was unaffected. The culture system as described by Bradner et al., PNAS, vol. 107(28), pp. 12617-22 (2010). […]
# The cells were then differentiated by exposure to either vehicle or Compound 001. RNA was measured at days 0, 2, 3, 4, 5, 6, and 8.
# Gata1 increased and Gata2 decreased in control cells during the 5 days differentiation period, a result consistent with the known expression pattern of these genes during erythropoiesis (FIG. 1C).
# [3] = target: HDAC1 (Homo sapiens, UniProt Q13547); assay: in vitro biochemical HDAC inhibition assay
# HDAC1, sequence (Q13547 whole entry): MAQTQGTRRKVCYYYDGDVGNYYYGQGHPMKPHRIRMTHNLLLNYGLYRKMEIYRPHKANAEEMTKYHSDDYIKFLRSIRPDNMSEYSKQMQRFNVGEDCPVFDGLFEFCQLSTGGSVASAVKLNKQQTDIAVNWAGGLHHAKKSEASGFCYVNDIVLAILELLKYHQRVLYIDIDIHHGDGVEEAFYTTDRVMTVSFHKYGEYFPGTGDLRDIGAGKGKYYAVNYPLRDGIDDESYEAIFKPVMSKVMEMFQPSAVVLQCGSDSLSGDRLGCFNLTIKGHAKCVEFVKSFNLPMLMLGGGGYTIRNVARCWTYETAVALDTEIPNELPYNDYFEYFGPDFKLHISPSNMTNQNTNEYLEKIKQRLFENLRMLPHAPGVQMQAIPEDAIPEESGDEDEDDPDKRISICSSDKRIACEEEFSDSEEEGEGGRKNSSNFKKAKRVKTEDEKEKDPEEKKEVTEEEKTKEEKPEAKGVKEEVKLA
# [4] = dosing schedule study in rats; format: in vivo, rat; settings: 30 mg/kg
# Description: IV. Rats were dosed with 30 mg/kg once daily by oral gavage according to the above schedule. […] Group 1=daily dosing, Group 2=5 on 2 off, Group 3=3 on 4 off, Group 4=every other day, Group 5=control. N=4 animals per group (FIG. 28A).
# Data points are the average of N=4 animals. HbE2 mRNA level was determined by quantitative real time PCR and expressed relative to HbB mRNA control. Data for each animal was then normalized to the expression level prior to the onset of dosing (average of day −3 and day 0 values).
# Data points are the average of N=4 animals.
# [5] = test system: Gata2; assay: Gata2 shRNA knockdown with Compound 001 treatment; format: cell-based, human
# Description: In FIG. 13A-D, expanded hematopoietic progenitors were infected with lentivirus carrying short hairpin RNAs (shRNA) directed against the Gata2 gene (shG2-1, shG2-2) or a non-targeting control shRNA (shCtrl). Transduced cells were selected by puromycin treatment. […] RNA was isolated at the indicated time points and the level of Gata2 mRNA was determined by quantitative real time PCR (QRT-PCR). In FIG. 7A, K562 cells were infected with lentivirus as described above. […] RNA was isolated at indicated time point and the level of Gata2 mRNA was determined by quantitative real time PCR (QRT-PCR). In FIG. 7B, protein levels at Day 3 were determined by Western blot using antibodies against Gata2 and beta-actin as a loading control. […] Data was first normalized to beta-actin control and then expressed relative to vehicle treated cells.
# Since Gata2 levels decline during erythroid differentiation (FIGS. 1B and 1C), knockdown experiments were performed entirely in CS1 expansion media, which supports hematopoietic progenitors, and maintained Gata2 mRNA at a constant level in shCtrl cells following infection (FIG. 13B). Gata2 mRNA was reduced by 85% or 50% in shG2-1 or shG2-2 cells, respectively, while Gata2 protein was reduced by 50% by each hairpin, relative to shCtrl cells (FIG. 13B and FIG. 13D).
# [6] = test system: histone acetylation (H3K9/14ac, H3K56ac, H3K79ac, H2BK5ac); assay: histone acetylation levels by western blot; settings: 1 and 5 μM, FIG. 9B
# [7] = test system: human bone marrow mononuclear cells; assay: colony formation assays; settings: 1 μM
# [8] = target: T1, HDAC2 (Homo sapiens, UniProt Q92769)
# T1 sequence (Q92769 whole entry): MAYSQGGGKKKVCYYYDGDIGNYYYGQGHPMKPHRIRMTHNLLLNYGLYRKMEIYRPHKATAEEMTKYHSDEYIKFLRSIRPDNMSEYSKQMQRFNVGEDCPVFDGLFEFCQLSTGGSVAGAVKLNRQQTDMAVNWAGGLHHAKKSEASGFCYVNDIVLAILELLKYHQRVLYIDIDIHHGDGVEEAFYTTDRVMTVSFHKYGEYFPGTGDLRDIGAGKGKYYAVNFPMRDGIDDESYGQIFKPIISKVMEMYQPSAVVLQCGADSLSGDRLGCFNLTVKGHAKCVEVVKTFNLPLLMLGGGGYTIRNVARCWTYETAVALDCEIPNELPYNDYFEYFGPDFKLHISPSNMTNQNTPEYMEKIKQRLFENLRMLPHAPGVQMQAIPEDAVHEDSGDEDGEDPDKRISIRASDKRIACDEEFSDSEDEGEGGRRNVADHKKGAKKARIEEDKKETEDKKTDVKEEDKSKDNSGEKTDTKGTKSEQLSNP
# [9] = pharmacokinetics of Compound 001 in rats; format: in vivo; settings: rat, plasma, read-out: minimum drug exposure for the entire dosing period
# Description: I. A. Rats were dosed once daily by oral gavage for 6 consecutive days at 0 mg/kg, 10 mg/kg, or 30 mg/kg per dose (See FIG. 25A). Dosing days are indicated by a down arrow (FIG. 25A). Peripheral blood was drawn on the indicated days and analyzed for drug level in plasma (PK), complete blood counts (CBC), or isolation of total ribonucleic acid (RNA). C. […] Points are the average of replicate animals, error bars are the standard deviation of replicate animals (FIG. 25C).
# [10] = target: T1, HDAC2; assay: in vitro biochemical HDAC inhibition assay
# [11] = 1 μM for 6 days, culture conditions supporting late erythroblasts, FIG. 1C
# [12] = 1 μM for 8 days, culture conditions supporting early erythroblasts, FIG. 1B
# [13] = every other day dosing schedule
compound,measurement,setting,value
"Nc1ccc(-c2cccs2)cc1NC(=O)c1ccc2nc(N3CCNCC3)ccc2c1 [Compound 001, N-(2-amino-5-(thiophen-2-yl)phenyl)-2-(piperazin-1-yl)quinoline-6-carboxamide]",Gata2 mRNA,[1],induction of Gata2 mRNA
same,Gata1 mRNA,[2]; [11],unaffected
same,Gata2 mRNA,[2]; [11],induced
same,Gata1 mRNA,[2]; [12],unaffected
same,Gata2 mRNA,[2]; [12],induced
same,Klf1 mRNA,"[2]; QPCR, FIG. 1N",unaffected
same,decrease in Bcl11a mRNA,[2]; QRT-PCR time course,2 fold
same,decrease in Sox6 mRNA,[2]; QRT-PCR time course,10 fold
same,increase in Gata2 mRNA,[2]; QRT-PCR time course,8 fold
same,Gata2 increase relative to control cells,[2]; day 2,2 fold
same,Gata2 increase relative to control cells,[2]; day 5,5 fold
same,pIC50,"[3]; Table 2, read-out: IC50 HDAC1",8.40
same,pIC50,"[3]; pre-incubation time of 24 hours, FIG. 9A, 17B, read-out: IC50 against HDAC1",8.15
same,mode of HbF expression (HbE2 mRNA pattern),[4]; 3 on 4 off dosing schedule,heterocellular mode of HbF expression
same,myelosuppression (white blood cell counts),[4]; 3 on 4 off dosing schedule,greater myelo suppression
same,mode of HbF expression (HbE2 mRNA pattern),[4]; [13],pancellular mode of HbF expression
same,myelosuppression (white blood cell counts),[4]; [13],less myelosuppression
same,Gata2 mRNA induction,"[5]; 1 uM, cells expressing shCtrl",1.4 fold
same,Gata2 protein induction,"[5]; 1 uM, cells expressing shCtrl",5 fold
same,reduction of magnitude of HbG mRNA induction relative to shCtrl cells,[5]; shG2-1 and shG2-2 cells,25%
same,"histone acetylation (H3K9/14ac, H3K56, H3K79ac, H2BK5ac)",[6],dose-dependent accumulation of acetylation
same,number of CFU-E colonies,[7],no effect
same,number of CFU-GM colonies,[7],no effect
same,number of CFU-MK colonies,[7],significantly suppressed
same,size and number of BFU-E colonies,[7],no effect
same,pIC50,[8],7.38
same,concentration at 6 days,"[9]; high dose (30 mg/kg once daily oral gavage, 6 days)",≥ 5000 nM
same,concentration at 6 days,"[9]; low dose (10 mg/kg once daily oral gavage, 6 days)",≥ 1000 nM
same,pIC50,"[10]; Table 2, read-out: IC50 HDAC2",7.82
same,pIC50,"[10]; pre-incubation time of 24 hours, FIG. 9A, 17B, read-out: IC50 against HDAC2",7.74
